In patent US9029553B2, “2-anilino nicotinyl linked 2-amino benzothiazole conjugates and process for the preparation thereof” (Council of Scientific & Industrial Research, priority 2011, dated 2015):

How the values were obtained:
survivin = experiment: Western blot of cell death targets; type: cell-based, human; conditions: 1 μM, 24 h, HL-60
Method: Apoptosis was further characterized by the western blot analysis. Cells were treated with tested compounds at 1 μM for 24 h and expression of key apoptotic proteins like NF-kB, survivin; PARP, Bcl-2 and HSP-90 were analyzed through western blot. Both NF-kB and survivin are highly expressed in HL-60 cells. NF-kB is a transcriptional factor regulating the expression of several genes in the cells whereas survivin is a cell cycle regulated inhibitor of apoptosis protein (IAP), mostly over expressed in most of the tumors.

HL-60 cells [1] = experiment: Cell cycle analysis (FACS) by flow cytometry; type: cell-based, human; conditions: 1 μM, up to 24 h
Text: The damage was more apparent with compound 8 and 6 (90% and 60% DNA damaged, respectively).

HL-60 cells [2] = experiment: Flow cytometric analysis of reactive oxygen species (DCFH-DA); type: cell-based, human; conditions: 1 μM, 24 h, HL-60, compared to control
Method: It was clear that these compounds were cytotoxic and induce apoptosis in HL-60 cells, now we have to found out the early events which were responsible for the induction of apoptosis like reactive oxygen species (ROS) or nitric oxide (NO) generation. Intracellular peroxide (ROS) in the cells was measured by DCFH-DA by using flow cytometry. Cells were incubated with tested compounds at 1 μM for 24 h in HL-60 cells and analyzed by flow cytometry after double staining with DCFH-DA (FIG. 7). Cells were analyzed for fluorescence intensity in FL1 vs. cell count. There was hardly any DCF fluorescence (ROS positive cells) in the untreated HL-60 cells, and this status remained unchanged when cells were incubated for 24 hr with compounds 7 and 8. […] Compounds 4 and 6 also induce the generation of peroxide in HL-60 cells (31 and 16% increase, respectively).

SiHa [3] = experiment: MTT inhibition of cell proliferation; type: cell-based; conditions: Homo sapiens, 48 h
Text: (§1) In order to determine the mode of action of cell death in cancer cells, first we explored the cytotoxic potential of different structural analogs of benzothiazoles on different human cancer cell lines. […] These compounds have limited or no cytotoxicity to cervical cancer SiHa, HeLa cells, breast cancer MCF-7 cells and colon cancer HCT-15 cells.

Hela [4] = experiment: MTT inhibition of cell proliferation; type: cell-based; conditions: Homo sapiens, 48 h
Text: as §1

MCF-7 [5] = experiment: MTT inhibition of cell proliferation; type: cell-based; conditions: Homo sapiens, MCF7, 48 h
Text: as §1

HL-60 = experiment: MTT inhibition of cell proliferation; type: cell-based; conditions: Homo sapiens, 48 h
Text: as §1

HCT-15 [6] = experiment: MTT inhibition of cell proliferation; type: cell-based; conditions: Homo sapiens, 48 h
Text: as §1

[7] = system: normal monkey kidney CV-1 cells; experiment: MTT cytotoxicity in normal cells; type: cell-based; conditions: Primates
Method: These compounds were also evaluated for their cytotoxic potential in normal cells and for these purpose their IC50 value were also determine in normal monkey kidney CV-1 cells by using MTT method. The ratios of normal to cancer cells IC50 value were ranges from 10-1000 times (Table 5).

[8] = system: Ehrlich Ascites Carcinoma (EAC); experiment: In vivo anticancer activity, Ehrlich ascites carcinoma; design: species or system Swiss mice; conditions: for No. of deaths / toxicity to animals: EAC mice
Method: Model: Ehrlich Ascites Carcinoma (EAC)
Ehrlich ascites carcinoma (EAC) cells were collected from the peritoneal cavity of the swiss mice harbouring 8-10 days old ascitic tumor. 1×10^7 EAC cells were injected intraperitoneally in Swiss mice selected for the experiment on day 0. The next day, animals were randomized and divided into different groups. The treatment groups contained 7 animals each and control group contained 10 animals. Treatment groups were treated with different doses of test substances intraperitoneally from day 1-9. One of the treatment group received 5-fluorouracil (20 mg/kg, i.p) and it served as positive control. The tumor bearing control group was similarly administered normal saline (0.2 ml, i.p.). On day 12, animals were sacrificed and ascitic fluid was collected from peritoneal cavity of each mouse for the evaluation of tumor growth. Percent tumor growth inhibition was calculated based on the total number of tumor cells present in the peritoneal cavity as on day 12 of the experiment using the following formula.

SiHa [9] = experiment: SRB percentage growth inhibition (NCI protocol); type: cell-based; conditions: Homo sapiens, 48 hrs exposure
Method: (§2) 2-Anilino nicotinyl linked 2-amino benzothiazoles conjugates of formula 4-8 have been tested against ten and eleven human cancer cell lines for 10 and 1 μM respectively derived from nine cancer types (leukemia, non-small cell lung cancer, colon cancer, CNS cancer, melanoma, ovarian cancer, renal cancer, prostate cancer and breast cancer) as per NCI protocol. For each compound, percentage of growth inhibition was calculated for individual cell lines at a minimum of two concentrations (1 and 10 μM). A protocol of 48 hrs continuous drug exposure was used, and a sulforhodamine B (SRB) protein assay was used to estimate cell viability or growth. The percentage of growth inhibition compared with the control was calculated in table 1 and table 2.

DU145 = experiment: SRB percentage growth inhibition (NCI protocol); type: cell-based; conditions: Homo sapiens, DU-145, 48 hrs exposure
Method: as §2

HEP-2 = experiment: SRB percentage growth inhibition (NCI protocol); type: cell-based; conditions: Homo sapiens, 48 hrs exposure
Method: as §2

502713 = experiment: SRB percentage growth inhibition (NCI protocol); type: cell-based; conditions: Homo sapiens, 48 hrs exposure
Method: as §2

SK-NS-H = experiment: SRB percentage growth inhibition (NCI protocol); type: cell-based; conditions: Homo sapiens, SK-N-SH, 48 hrs exposure
Method: as §2

Hela [10] = experiment: SRB percentage growth inhibition (NCI protocol); type: cell-based; conditions: Homo sapiens, 48 hrs exposure
Method: as §2

IGR-OV-1 = experiment: SRB percentage growth inhibition (NCI protocol); type: cell-based; conditions: Homo sapiens, IGROV-1, 48 hrs exposure
Method: as §2

IMR-32 = experiment: SRB percentage growth inhibition (NCI protocol); type: cell-based; conditions: Homo sapiens, 48 hrs exposure
Method: as §2

MCF-7 [11] = experiment: SRB percentage growth inhibition (NCI protocol); type: cell-based; conditions: Homo sapiens, MCF7, 48 hrs exposure
Method: as §2

Sw-620 = experiment: SRB percentage growth inhibition (NCI protocol); type: cell-based; conditions: Homo sapiens, 48 hrs exposure
Method: as §2

A549 = experiment: SRB percentage growth inhibition (NCI protocol); type: cell-based; conditions: Homo sapiens, 48 hrs exposure
Method: as §2

OVCAR-5 = experiment: SRB percentage growth inhibition (NCI protocol); type: cell-based; conditions: Homo sapiens, 48 hrs exposure
Method: as §2

HCT-15 [12] = experiment: SRB percentage growth inhibition (NCI protocol); type: cell-based; conditions: Homo sapiens, 48 hrs exposure
Method: as §2

PC-3 = experiment: SRB percentage growth inhibition (NCI protocol); type: cell-based; conditions: Homo sapiens, 48 hrs exposure
Method: as §2

O=C(Nc1nc2ccc([N+](=O)[O-])cc2s1)c1cccnc1Nc1ccc(F)cc1 [Compound 6, N3-(6-nitro-1,3-benzothiazol-2-yl)-2-(4-fluoroanilino)nicotinamide]
survivin level (western blot) (survivin): highest inhibition potential | DNA damaged (sub-G0 fraction) (HL-60 cells [1]): 60% | increase in DCF positive cell population (ROS) (HL-60 cells [2]): 16% | IC50 (SiHa [3]): 7 µM | IC50 (Hela [4]): 8 µM | IC50 (MCF-7 [5]): > 100 µM | IC50 (HL-60): 0.3 µM | IC50 (HCT-15 [6]): > 100 µM | IC50 [7]: 15 µM | Growth Inhibition (%) ([8]; 20 mg/Kg i.p. day 1-9, read day 12): 22.18% | No. of deaths / toxicity to animals ([8]; 20 mg/Kg i.p.): 0/7 | Growth Inhibition (%) ([8]; 30 mg/Kg i.p. day 1-9, read day 12): 43.11% | No. of deaths / toxicity to animals ([8]; 30 mg/Kg i.p.): 0/7 | Growth Inhibition (%) ([8]; 40 mg/Kg i.p. day 1-9, read day 12): 68.11% | No. of deaths / toxicity to animals ([8]; 40 mg/Kg i.p.): 4/7 and considerable toxicity | No. of deaths / toxicity to animals ([8]; 40 mg/Kg i.p., listed as Comp 6): 4/7 | inhibition at 10 µM (SiHa [9]): 23% | inhibition at 1 µM (DU145; 1 μM): 31% | inhibition at 10 µM (DU145; 10 μM): 51% | inhibition at 1 µM (HEP-2; 1 μM): 53% | inhibition at 10 µM (HEP-2; 10 μM): 52% | inhibition at 10 µM 502713: 66% | inhibition at 10 µM (SK-NS-H): 63% | inhibition at 1 µM (Hela [10]): 40% | inhibition at 1 µM (IGR-OV-1): 25% | inhibition at 1 µM (IMR-32; 1 μM): 31% | inhibition at 10 µM (IMR-32; 10 μM): 33% | inhibition at 1 µM (MCF-7 [11]): 39% | inhibition at 1 µM (Sw-620; 1 μM): 9% | inhibition at 10 µM (Sw-620; 10 μM): 67% | inhibition at 1 µM (A549; 1 μM): 27% | inhibition at 10 µM (A549; 10 μM): 18% | inhibition at 1 µM (OVCAR-5; 1 μM): 27% | inhibition at 10 µM (OVCAR-5; 10 μM): 53% | inhibition at 1 µM (HCT-15 [12]; 1 μM): 22% | inhibition at 10 µM (HCT-15 [12]; 10 μM): 55% | inhibition at 1 µM (PC-3): 26%
